The subject of data set [1] is Chinese hamster fibroblast NR− line (T78-1), V79/4 transfected with an empty shuttle vector. Put plainly: Cytotoxicity, 18 h drug exposure, V79 NR− line (T78-1). It is filed as cell-based. Particulars: T78-1 cells, 18 h drug exposure, read-out: V-79 NR− IC50. From the text:
(§1) The Chinese hamster fibroblast NR− line (T78-1) is a V79/4 Chinese hamster fibroblast transfected with an empty shuttle vector, while the NR+ line (T79-A3) is the corresponding NR transfectant. The human colon carcinoma NR− line (WIDR) is wild-type, while the NR+ line (WC14 10) is the corresponding NR transfectant. The human ovarian carcinoma NR− line (SKOV3) is wild-type, while the NR+ line (SC3.2) is the corresponding NR transfectant. EMT6 is a mouse mammary carcinoma line, and EN2A is the NR-transformed counterpart.

In data set [2] the test system is Chinese hamster fibroblast NR+ line (T79-A3), NR transfectant. Nature of the data set: Cytotoxicity, 18 h drug exposure, V79 NR+ line (T79-A3). It is filed as cell-based. Particulars: for IC50: T79-A3 cells, 18 h drug exposure, read-out: V-79 NR+ IC50; for V-79 ratio of IC50s: T78-1 vs T79-A3, inter-experiment average.
From the text: as §1

The test system of data set [3] is human colon carcinoma NR− line (WIDR), wild-type. Put plainly: Cytotoxicity, 18 h drug exposure, WiDr NR− line. It is filed as cell-based. Particulars: WIDR cells, 18 h drug exposure, read-out: WiDr NR− IC50.
From the text: as §1

Data set [4] concerns human colon carcinoma NR+ line (WC14 10), NR transfectant. Nature of the data set: Cytotoxicity, 18 h drug exposure, WiDr NR+ line (WC14 10). Type of data set: cell-based. As to conditions: for IC50: WC14 10 cells, 18 h drug exposure, read-out: WiDr NR+ IC50; for WiDr ratio of IC50s: WIDR vs WC14 10, inter-experiment average.
From the text: as §1

For data set [5], the system named is human ovarian carcinoma NR− line (SKOV3), wild-type. Nature of the data set: Cytotoxicity, 18 h drug exposure, SKOV3 NR− line. Type of data set: cell-based. Particulars: SKOV3 cells, 18 h drug exposure, read-out: SKOV NR− IC50.
From the text: as §1

Data set [6] concerns human ovarian carcinoma NR+ line (SC3.2), NR transfectant. Nature of the data set: Cytotoxicity, 18 h drug exposure, SKOV NR+ line (SC3.2). Type of data set: cell-based. Particulars: for IC50: SC3.2 cells, 18 h drug exposure, read-out: SKOV NR+ IC50; for SKOV ratio of IC50s: SKOV3 vs SC3.2, inter-experiment average.
From the text: as §1

In data set [7] the test system is EMT6 mouse mammary carcinoma line. Put plainly: Cytotoxicity, 18 h drug exposure, EMT6 NR− line. It is filed as cell-based. As to conditions: EMT6 cells, 18 h drug exposure, read-out: EMT6 NR− IC50.
From the text: as §1

Data set [8] deals with EN2A, NR-transformed counterpart of EMT6. Nature of the data set: Cytotoxicity, 18 h drug exposure, EMT6 NR+ line (EN2A). It is filed as cell-based, mouse. As to conditions: for IC50: EN2A cells, 18 h drug exposure, read-out: EMT6 NR+ IC50; for EMT6 ratio of IC50s: EMT6 vs EN2A, inter-experiment average.
From the text: as §1

Structures are written as SMILES. Like-named read-outs stand apart in the source and are kept apart here.

`NC(=O)c1cc([N+](=O)[O-])c(N2CC2)c([N+](=O)[O-])c1` [Compound 19, 4-(Aziridin-1-yl)-3,5-dinitrobenzamide]: the melting point lay within 228 to 231 °C. Also, in [1] (Cricetulus griseus), the IC50 was greater than 20 µM. The IC50 in [2] (Cricetulus griseus, Fibroblast) is greater than 20 µM. The IC50 in [3] (Homo sapiens) was greater than 20 µM. In addition, the IC50 in [4] (Homo sapiens, WiDr) was greater than 20 µM. Moreover, the IC50 in data set [5] (Homo sapiens, SK-OV-3) was greater than 20 µM. The IC50 in data set [6] (Homo sapiens) is greater than 20 µM. Moreover, the IC50 in data set [7] (Mus musculus) was greater than 20 µM. The concentration for half-maximal inhibition (IC50) in data set [8] (Mus musculus, EMT6) is greater than 20 µM.

`NC(=O)c1cc([N+](=O)[O-])c(Cl)cc1N1CC1` showed a melting point of 155 °C.

As for `O=C(NCCN1CCOCC1)c1cc(N2CC2)c([N+](=O)[O-])cc1[N+](=O)[O-]` [Compound 3, 5-(aziridin-1-yl)-N-[2-(4-morpholino)ethyl]-2,4-dinitrobenzamide], the IC50 in data set [1] is 571 µM; in data set [2] it was 0.15 µM; in data set [3] it was 131 µM; in data set [4] it was 0.72 µM; in data set [5] it was 494 µM; in data set [6], 0.45 µM. Moreover, the IC50 is 229 µM in [7] and 0.061 µM in [8]. The “V-79 ratio of IC50s” value in data set [2] was 4160. The “WiDr ratio of IC50s” value in data set [4] was 183. Further, the “SKOV ratio of IC50s” value in data set [6] was found to be 1100. The “EMT6 ratio of IC50s” value in [8] came out at 4505.

Molecule `NC(=O)c1ccc(Cl)c([N+](=O)[O-])c1N1CC1` displayed a melting point of 216 °C.

As to `CS(=O)(=O)c1cc([N+](=O)[O-])c(N2CC2)cc1C(=O)NCC(O)CO` (centres unmarked) [Compound 10, 5-(aziridin-1-yl)-N-(2,3-dihydroxypropyl)-2-(methylsulfonyl)-4-nitrobenzamide], the IC50 in data set [1] (Cricetulus griseus) was 641 µM; in data set [2] (Cricetulus griseus, Fibroblast) it was 8.8 µM; in data set [3] (Homo sapiens) it was 826 µM; in [4] (Homo sapiens, WiDr) it was 26 µM; in data set [5] (Homo sapiens, SK-OV-3) it was 920 µM; in data set [6] (Homo sapiens), 6.2 µM. Besides, the IC50 was found to be 454 µM in data set [7] (Mus musculus) and 3.7 µM in data set [8] (Mus musculus, EMT6). For the same molecule, in [2], the “V-79 ratio of IC50s” value amounted to 87. Also, the “WiDr ratio of IC50s” value in data set [4] is 33. In data set [6], the “SKOV ratio of IC50s” value is 159. Further, the “EMT6 ratio of IC50s” value in data set [8] is given as 124.

In the case of `NC(=O)c1cc([N+](=O)[O-])cc([N+](=O)[O-])c1N1CC1` [Compound 14, 2-(aziridin-1-yl)-3,5-dinitrobenzamide], the IC50 in data set [1] (Cricetulus griseus) is 1080 µM; in data set [2] (Cricetulus griseus, Fibroblast), 1.2 µM; in data set [3] (Homo sapiens), 1080 µM; in data set [4] (Homo sapiens, WiDr), 13 µM; in data set [5] (Homo sapiens, SK-OV-3), 1700 µM; in data set [6] (Homo sapiens), 6.1 µM. Further, the IC50 in data set [7] (Mus musculus) came out at 769 µM; in data set [8] (Mus musculus, EMT6), 1.3 µM. Further, in [2], the “V-79 ratio of IC50s” value was 864. In addition, in data set [4], the “WiDr ratio of IC50s” value is recorded as 85. For the same molecule, the “SKOV ratio of IC50s” value in [6] is 280. Further, the “EMT6 ratio of IC50s” value in data set [8] is 626.

For orientation: IC50 means the concentration needed to halve the response being measured. For orientation: melting point means the temperature, or range, at which the solid turns liquid.

The record behind these values is patent US6517836B1, “Nitrophenylaziridine compounds and their use as prodrugs” (Auckland Uniservices Limited, priority 1998, dated 2003).
